In the oligonucleotide strings, read from the 5' end, every base follows the letter of its sugar. An asterisk marks phosphorothioate; unmarked linkages are phosphodiester. Other units and linkages are bracketed, terminal groups are in braces. A string of capitals states the bases alone. {NAG37} = tridentate N-acetyl-galactosamine targeting ligand, structure (NAG37)s; [invAb] = inverted abasic unit; m = 2'-O-methyl; f = 2'-fluoro
Columns and labels:
[1] = test system: ANGPTL3 gene; test: Example 12: serum total cholesterol in LDLR knockout mice; assay type: in vivo, LDLR KO mice
Description: (§1) To evaluate the effect of RNAi agent administration in a disease model, mice having a genetic mutation for the LDL receptor (referred to herein as LDLR KO mice) were commercially obtained (The Jackson Laboratory). The LDLR KO mice are homozygous for the Ldlr^tm1Her mutation, and have elevated serum cholesterol levels, particularly when placed on a high fat diet. For three weeks prior to the onset of the study, thirty-nine (39) LDLR KO mice were placed on a high fat diet (Teklad Custom Diets TD.88137). An additional eight (8) LDLR KO mice were placed on a normal chow diet over the same three-week period. Pre-dose serum samples were taken on day −15 and day −1 after a four hour fast. At day 1, each mouse was given a single subcutaneous administration of 200 μl/30 g animal body weight containing the respective mg/kg dose of an ANGPTL3 RNAi agent in D5W (dextrose in 5% water), control (D5W) with no RNAi agent, or a control RNAi agent that included a nucleotide sequence designed to target the Hepatitis B Virus (HBV) genome. A second injection of the same formulation was administered to the animals on day 29. The dosing regimen for the study is recited in the following Table 60:
(§2) Each mouse remained on its respective diet through the duration of study. The RNAi agent tested (AD05488) included a modified sequence and an N-acetyl-galactosamine-containing targeting ligand conjugated to the 5′ terminal end of the sense strand. (See Tables 3, […] modified sequences and targeting ligand structures). The injections were performed between the skin and muscle (i.e. subcutaneous injections) into the loose skin over the neck and shoulder area. Serum was collected on days 8, 15, 22, 29 (pre-second dose), 36, 43, 50, and 57. LDLR KO mice were fasted for four hours prior to each collection. On day 15, four (4) LDLR KO mice from Groups 1, 2, and 3 (i.e., the groups being administered the high fat “Western” diet) were sacrificed after serum collection, and on day 29, an additional four (4) LDLR KO mice from Groups 1, 2, and 3 were sacrificed after serum collection, for the purpose of performing mRNA assessments.
(§3) ANGPTL3 protein levels in serum were measured by ELISA assay (R&D Systems), according to the manufacturer's recommendations. Triglycerides, total cholesterol, high-density lipoprotein (HDL), and low-density lipoprotein (LDL) in serum were measured on a Cobas® Integra 400 (Roche Diagnostics), according to the manufacturer's recommendations.
(§4) The ANGPTL3 protein levels, triglyceride levels, total cholesterol levels, HDL levels, and LDL levels for each animal were normalized. For normalization, respective levels of ANGPTL3 protein, TG, total cholesterol, HDL, or LDL for each animal at a time point was divided by the average pre-treatment level of expression in that animal (in this case the average of day −15 and day −1) to determine the ratio of expression “normalized to pre-treatment.”
(§5) Expression at a specific time point was then normalized to the D5W control group that was administered the same diet (i.e., either the high fat “Western” diet or the normal chow-fed diet) by dividing the “normalized to pre-treatment” ratio for an individual animal by the mean “normalized to pretreatment” ratio of all mice in the D5W control group on the respective same diet, resulting in expression for each time point normalized to that in the control group.

[2] = test system: ANGPTL3 gene; test: Example 12: serum HDL in LDLR knockout mice; assay type: in vivo, LDLR KO mice; conditions: 3.0 mg/kg sc day 1
Description: as §1, §2, §3, §4, §5

For “AD05488: RNAi agent duplex: antisense AM07235-AS, sense AM07234-SS (antisense mU*fA*mC*fUmGfAmUfCmAfAmAfUmAfUmGfUmUfGmAfG*mC; sense {NAG37}*[invAb]*mGmCmUmCmAmAmCmAfUfAfUmUmUmGmAmUmCmAmGmUmA*[invAb])”, the “reductions in total cholesterol” value ([1]; 3.0 mg/kg on days 1 and 29 (Groups 2 and 5), LDLR KO mice) was “significant reductions”, the “Avg Total Chol Normalized to Pre-Treatment and Control (Diet Matched)” value (“Avg Total Chol Normalized” for short) ([1]; 3.0 mg/kg sc day 1, High Fat Diet, Day 8) was 0.524 and the “Avg Total Chol Normalized” value ([1]; 3.0 mg/kg sc day 1, High Fat Diet, Day 15) was 0.438. The “Avg Total Chol Normalized” value ([1]; 3.0 mg/kg sc day 1, High Fat Diet, Day 22) was 0.410, the “Avg Total Chol Normalized” value ([1]; 3.0 mg/kg sc day 1, High Fat Diet, Day 29 (pre-second dose)) was 0.410 and the “Avg Total Chol Normalized” value ([1]; 3.0 mg/kg sc day 1, Normal Diet, Day 8) was 0.645. For the same substance, the “Avg Total Chol Normalized” value ([1]; 3.0 mg/kg sc day 1, Normal Diet, Day 15) was 0.683, the “Avg Total Chol Normalized” value ([1]; 3.0 mg/kg sc day 1, Normal Diet, Day 22) was 0.691 and the “Avg Total Chol Normalized” value ([1]; 3.0 mg/kg sc day 1, Normal Diet, Day 29 (pre-second dose)) was 0.636. The “Avg Total Chol Normalized” value ([1]; 3.0 mg/kg sc days 1 and 29, High Fat Diet, Day 36) was 0.438, the “Avg Total Chol Normalized” value ([1]; 3.0 mg/kg sc days 1 and 29, High Fat Diet, Day 43) was 0.363 and the “Avg Total Chol Normalized” value ([1]; 3.0 mg/kg sc days 1 and 29, High Fat Diet, Day 50) was 0.374. For the same substance, the “Avg Total Chol Normalized” value ([1]; 3.0 mg/kg sc days 1 and 29, High Fat Diet, Day 57) was 0.341, the “Avg Total Chol Normalized” value ([1]; 3.0 mg/kg sc days 1 and 29, Normal Diet, Day 36) was 0.758 and the “Avg Total Chol Normalized” value ([1]; 3.0 mg/kg sc days 1 and 29, Normal Diet, Day 43) was 0.657. For the same substance, the “Avg Total Chol Normalized” value ([1]; 3.0 mg/kg sc days 1 and 29, Normal Diet, Day 50) was 0.824, the “Avg Total Chol Normalized” value ([1]; 3.0 mg/kg sc days 1 and 29, Normal Diet, Day 57) was 0.684 and the “Avg HDL Normalized to Pre-Treatment and Control (Diet Matched)” value (“Avg HDL Normalized” for short) ([2]; High Fat Diet, Day 8) was 0.693. For the same substance, the “Avg HDL Normalized” value ([2]; High Fat Diet, Day 15) was 0.735, the “Avg HDL Normalized” value ([2]; High Fat Diet, Day 22) was 0.716 and the “Avg HDL Normalized” value ([2]; High Fat Diet, Day 29 (pre-second dose)) was 0.711. The “Avg HDL Normalized” value ([2]; Normal Diet, Day 8) was 0.645, the “Avg HDL Normalized” value ([2]; Normal Diet, Day 15) was 0.745 and the “Avg HDL Normalized” value ([2]; Normal Diet, Day 22) was 0.766. The “Avg HDL Normalized” value ([2]; Normal Diet, Day 29 (pre-second dose)) was 0.737.

— patent US12729377B2, “RNAi agents and compositions for inhibiting expression of angiopoietin-like 3 (ANGPTL3), and methods of use” (Arrowhead Pharmaceuticals, Inc., priority 2017, dated 2026)
